Tests used:
[1] = test system: A10 embryonic vascular smooth muscle cells; assay: xCELLigence cell impedance in A10 vascular smooth muscle cells; assay type: cell-based; conditions: test compounds at 62.5, 125 or 250 μM; FIG. 8; negative response = direct vasodilator
Description: The xCELLigence SP system (Roche) was used to measure changes in cellular impedance (cell index) following the treatment of A10 embryonic vascular smooth muscle cells (ATCC, CRL-1476) with test compound. In this in vitro cell based experimental system a negative impedance profile correlates with blood pressure reduction in rats—a decrease in impedance is associated with vasodilatation and an increase in impedance is associated with vasoconstriction (Stallaert W, Dorn J F, van der Westhuizen E, Audet M & Bouvier M. Impedance responses reveal β-adrenergic signaling […] and allow classification of ligands with distinct signalling profiles PLoS ONE 2012; 7(1):e29420, doi:10.1371/journal.pone.0029420).
(§1) Briefly, 50 μl of cell culture medium (DMEM low glucose supplemented with 10% fetal bovine serum at 37° C.) was added to each well of an E-Plate 96 (Roche), and the background impedance in each well was measured. 50 μl of A-10 cell suspension (10,000 cells/well) was then added to the appropriate wells of the E-Plate 96. Cell index was monitored for each well of the E-Plate 96 in RTCA SP Station within the cell culture incubator. After overnight incubation for 16-20 hours at 5% CO2 and 95% humidity, 100 μl of test compound solution (test compounds were prepared in DMSO and diluted with cell culture medium to a final DMSO concentration of 0.25%) was added to the appropriate wells of the E-Plate 96 and cell index values were measured immediately following compound treatment every 20 seconds for 3 hours. Cell index value is baseline-corrected by subtracting the cell index of vehicle-treated cells and normalized by dividing by the cell index at the time point immediately before compound addition. Baseline normalized cell index as a function of time is plotted using Roche RTCA software.
Compounds may achieve reductions in blood pressure by interaction with vascular smooth muscle cells causing these cells to relax resulting in vasodilatation and a reduction in blood pressure. These are termed direct vasodilators.

[2] = test system: Rat (NRK-52E) renal proximal tubule cells; assay: Rescue of renal proximal tubule cells from cisplatin cytotoxicity (WST-8/CCK-8); assay type: cell-based; conditions: test compound 30 μM; cisplatin 5 μg/ml; 24 or 48 hours; FIG. 10
Protocol: Rat (NRK-52E) renal proximal tubule cells grown in DMEM+10% FBS+1% NEAA+2 mM glutamine were placed in 96 well plates at 10,000 cells/well and incubated at 37° C. with 5% CO2 overnight. Test compounds at a concentration of 30 μM were incubated with human or rat renal proximal tubule cells for 2 hours at 37° C. and 5% CO2. Cis-diamminedichloroplatinum[…] (cisplatin) was then added at […] and each cell population was then incubated for 24 or 48 hours at 37° C. with 5% CO2. Test compounds were maintained at their original concentrations. To assay the cytotoxic effects of cisplatin on the rat renal proximal tubule cells a highly water-soluble tetrazolium salt, WST-8, which is reduced by dehydrogenases in cells to produce formazan, a water-soluble, yellow-coloured indicator dye was used following the manufacturer's instructions (specifically the Cell Count Kit-8 (CCK-8) assay from Sigma). Plate absorbance of the WST-8 (CCK-8) reagent was then measured at 450 nm using a Thermo Scientific Multiskan EX plate reader.

SHR [3] = assay: Blood pressure in SHR by tail cuff plethysmography; assay type: in vivo, rat; conditions: SHR on 2.2% salt diet; 500 pmol/kg/min in drinking solution; 4 weeks; systolic, FIG. 11
Description: Fourteen week old SHR (on a 2.2% salt diet; Glen Forrest Stockfeeders) were randomly assigned to zero time control (14 week old rats), test compound treatment drinking solution (500 pmol/kg/min in deionised distilled water) or control drinking solution (5% ethanol in deionised distilled water). The rats assigned to zero time control group (14 week old rats) were anaesthetised and had their kidneys and liver harvested while rats assigned to control and test compound treatment were weighed twice weekly and had their drinking solution intake monitored to allow adjustment of the test compound concentration in the drinking solution to maintain a constant dose over the 4-week study period. Blood pressure was measured twice weekly by tail cuff plethysmography (PowerLab, ADInstruments, Castle Hill, NSW, Australia). After 4 weeks rats were anaesthetised (18 week old rats), and their kidneys and liver harvested.

SHR [4] = assay: Kidney fibrosis in SHR (Masson's trichrome); assay type: in vivo, rat; conditions: SHR on 2.2% salt diet, 500 pmol/kg/min, 4 weeks; for Fibrosis in the kidney compared to 18 week controls: FIG. 12, *p<0.05
Description: (§2) Fourteen week old SHR (on a 2.2% salt diet; Glen Forrest Stockfeeders) were randomly assigned to zero time control (14 week old rats), test compound treatment drinking solution (500 pmol/kg/min in deionised distilled water) or control drinking solution (5% ethanol in deionised distilled water). The rats assigned to zero time control group (14 week old rats) were anaesthetised and had their kidneys and liver harvested while rats assigned to control and test compound treatment were weighed twice weekly and had their drinking solution intake monitored to allow adjustment of the test compound concentration in the drinking solution to maintain a constant dose over the 4-week study period. Blood pressure was measured twice weekly by tail cuff plethysmography (PowerLab, ADInstruments, Castle Hill, NSW, Australia). After 4 weeks rats were anaesthetised (18 week old rats), and their kidneys and liver harvested. To quantitate tissue fibrosis and/or fat content, tissue slices ≤3 mm thick were fixed in 10% buffered formalin for 24 hours, processed and embedded in paraffin. Three micron transverse sections were stained using Masson's trichrome stain. A minimum of 20 random fields at magnification ×20 from transverse sections (5 at each of 2 levels) were digitized and the degree of fibrosis and fat content determined as a percent of field area of each digitized image using Image-Pro Plus V.7 (Media Cybernetics, Bethesda, Md., USA) then averaged to determine the level of fibrosis and/or fat content for each rat.

[5] = test system: bovine aortic endothelial cells; assay: xCELLigence cell impedance in bovine aortic endothelial cells; assay type: cell-based; conditions: test compounds at 62.5, 125 or 250 μM; FIG. 9; negative response = indirect vasodilator
Protocol: as §1
The xCELLigence SP system was also used to measure changes in cellular impedance following the treatment of bovine aortic endothelial cells (European Collection of Cell Cultures) with test compound. The method employed is the same for the A10 embryonic vascular smooth muscle cells described above but with the cell culture medium supplemented with 15% fetal bovine serum instead of 10%.
Compounds may interact with vascular endothelial cells causing the release of substances such as nitric oxide and endothelium-derived hyperpolarising factor, which in turn act on the vascular smooth muscle cells causing vasodilatation and lowering blood pressure. Such compounds are termed indirect vasodilators.

SHR [6] = assay: Hepatic fibrosis in SHR (Masson's trichrome); assay type: in vivo, rat; conditions: for Tissue architecture of portal tracts in Masson's tri-chrome stained liver sections: SHR treated rats vs control, FIG. 14; for Fibrosis in the liver compared to 18 week controls: SHR, 500 pmol/kg/min, 4 weeks, FIG. 13, *p<0.05, **p<0.025, ***p<0.01
Description: as §2

SHR [7] = assay: Hepatic fat content in SHR; assay type: in vivo, rat; conditions: SHR on 2.2% salt diet; 500 pmol/kg/min; 4 weeks; FIG. 15, *p<0.05, **p<0.025, ***p<0.01
Description: as §2

NC(=O)CCc1cc(-c2cccnc2)ccc1-c1cccc(O)c1 [Compound P5, 3-(3′-Hydroxy-4-(pyridin-3-yl)-[1,1′-biphenyl]-2-yl)propanamide]
impedance response for A10 vascular smooth muscle cells [1]: Negative impedance responses | Cisplatin induced cell death in renal proximal tubular cells [2]: decreased | Blood pressure (SHR [3]): reduced | Fibrosis in the kidney compared to 14 week controls (SHR [4]; FIG. 12, #p<0.05, reversal of established fibrosis): decreased | Fibrosis in the kidney compared to 18 week controls (SHR [4]): decreased

NC(=O)CCc1cc(-c2ccsc2)ccc1-c1cccc(O)c1 [Compound P8, 3-(3′-Hydroxy-4-(thiophen-3-yl)-[1,1′biphenyl]-2-yl)propanamide]
impedance response for A10 vascular smooth muscle cells [1]: Negative impedance responses | impedance response for bovine aortic endothelial cells [5]: Negative impedance responses | Cisplatin induced cell death in renal proximal tubular cells [2]: decreased | Blood pressure (SHR [3]): reduced | Fibrosis in the kidney compared to 18 week controls (SHR [4]): decreased | Tissue architecture of portal tracts in Masson's tri-chrome stained liver sections (SHR [6]): normal tissue architecture has been restored | Fibrosis in the liver compared to 18 week controls (SHR [6]): decreased

NC(=O)CCc1cc(-c2cn[nH]c2)ccc1-c1cccc(O)c1 [Compound P22, 3-(3′-Hydroxy-4-(1H-pyrazol-4-yl)-[1,1′-biphenyl]-2-yl)propanamide]
impedance response for bovine aortic endothelial cells [5]: Negative impedance responses | Cisplatin induced cell death in renal proximal tubular cells [2]: decreased | Blood pressure (SHR [3]): reduced | Fibrosis in the kidney compared to 18 week controls (SHR [4]): decreased | Fibrosis in the liver compared to 18 week controls (SHR [6]): decreased | Fat in the liver compared to 18 week controls (SHR [7]): reduced

NC(=O)CCc1cc(-c2cncnc2)ccc1-c1cccc(O)c1 [Compound P26, 3-(3′-Hydroxy-4-(pyrimidin-5-yl)-[1,1-biphenyl]-2-yl)propanamide]
impedance response for bovine aortic endothelial cells [5]: Negative impedance responses | Cisplatin induced cell death in renal proximal tubular cells [2]: decreased | Fibrosis in the kidney compared to 18 week controls (SHR [4]): decreased | Tissue architecture of portal tracts in Masson's tri-chrome stained liver sections (SHR [6]): normal tissue architecture has been restored | Fibrosis in the liver compared to 18 week controls (SHR [6]): decreased | Fat in the liver compared to 18 week controls (SHR [7]): reduced

Cc1nc(C)c(-c2ccc(-c3cccc(O)c3)c(CCC(N)=O)c2)s1 [Compound P40, 3-(4-(2,4-Dimethylthiazol-5-yl)-3′-hydroxy-[1,1′biphenyl]-2-yl)propanamide]
Cisplatin induced cell death in renal proximal tubular cells [2]: decreased | Blood pressure (SHR [3]): reduced | Fibrosis in the kidney compared to 18 week controls (SHR [4]): decreased | Fibrosis in the liver compared to 18 week controls (SHR [6]): decreased | Fat in the liver compared to 18 week controls (SHR [7]): reduced

From patent US10183908B2, “Compositions for the treatment of kidney and/or liver disease” (VECTUS BIOSYSTEMS LIMITED, priority 2015, dated 2019)
